#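 All cell lines were grown in 96-well plates and treated with compound for 48 hours. Abbreviation: GI50, concentration required for 50% inhibition of growth. TGI is the concentration that stops growth completely.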
# Key:
# Assay in all cases: inhibition of tumour cell growth, NCI panel, 48 h
# HCT-116 colon = tested on: HCT-116 colon
# ACHN renal = tested on: ACHN renal
# SK-MEL-28 melanoma = tested on: SK-MEL-28 melanoma
# TK-10 renal = tested on: TK-10 renal
# K-562 leukemia = tested on: K-562 leukemia
# LOX IMVI melanoma = tested on: LOX IMVI melanoma
# HS 578T breast = tested on: HS 578T breast
# NCI-H226 lung = tested on: NCI-H226 lung
# U251 CNS = tested on: U251 CNS
# MOLT-4 leukemia = tested on: MOLT-4 leukemia
# EKVX NSCLC = tested on: EKVX NSCLC
# OVCAR-3 ovarian = tested on: OVCAR-3 ovarian
# OVCAR-4 ovarian = tested on: OVCAR-4 ovarian
# HL-60(TB) leukemia = tested on: HL-60(TB) leukemia
# HT29 colon = tested on: HT29 colon
# SF-539 CNS = tested on: SF-539 CNS
# UO-31 renal = tested on: UO-31 renal
# NCI-H23 lung = tested on: NCI-H23 lung
# NCI-H460 lung = tested on: NCI-H460 lung
# HOP-92 NSCLC = tested on: HOP-92 NSCLC
# UACC-62 melanoma = tested on: UACC-62 melanoma
# KM12 colon = tested on: KM12 colon
# SNB-19 CNS = tested on: SNB-19 CNS
# DU-145 prostate = tested on: DU-145 prostate
# SR leukemia = tested on: SR leukemia
# SN12C renal = tested on: SN12C renal
# NCI/ADR-RES ovarian = tested on: NCI/ADR-RES ovarian
# HCC-2998 colon = tested on: HCC-2998 colon
# SF-295 CNS = tested on: SF-295 CNS
# HOP-62 NSCLC = tested on: HOP-62 NSCLC
# OVCAR-5 ovarian = tested on: OVCAR-5 ovarian
# MDA-MB-231 breast = tested on: MDA-MB-231 breast
# M14 melanoma = tested on: M14 melanoma
# COLO 205 colon = tested on: COLO 205 colon
# MALME-3M melanoma = tested on: MALME-3M melanoma
# HCT-15 colon = tested on: HCT-15 colon
# SK-MEL-2 melanoma = tested on: SK-MEL-2 melanoma
# MDA-MB-435 = tested on: MDA-MB-435
# MCF7 breast = tested on: MCF7 breast
# SF-268 CNS = tested on: SF-268 CNS
# SW-620 colon = tested on: SW-620 colon
# IGROV1 ovarian = tested on: IGROV1 ovarian
# UACC-257 melanoma = tested on: UACC-257 melanoma
# MDA-MB-468 breast = tested on: MDA-MB-468 breast
# OVCAR-8 ovarian = tested on: OVCAR-8 ovarian
# CCRF-CEM leukemia = tested on: CCRF-CEM leukemia
# RXF 393 renal = tested on: RXF 393 renal
# 786-0 renal = tested on: 786-0 renal
# RPMI-8226 leukemia = tested on: RPMI-8226 leukemia
# A498 renal = tested on: A498 renal
# BT-549 breast = tested on: BT-549 breast
# T-47D breast = tested on: T-47D breast
# PC-3 prostate = tested on: PC-3 prostate
# A549 NSCLC = tested on: A549 NSCLC
# NCI-H522 lung = tested on: NCI-H522 lung
# SK-MEL-5 melanoma = tested on: SK-MEL-5 melanoma
# SK-OV-3 ovarian = tested on: SK-OV-3 ovarian
# CAKI-1 renal = tested on: CAKI-1 renal
structure (smiles),measurement,setting,value
CC(=O)c1ccc(Nc2nc(SC(C)C)nc(-c3ccccc3)c2C#N)cc1,GI50,HCT-116 colon,1.34 µM
same,TGI,HCT-116 colon,6.69 µM
same,GI50,ACHN renal,2.15 µM
same,TGI,ACHN renal,5.17 µM
same,GI50,SK-MEL-28 melanoma,16.9 µM
same,TGI,SK-MEL-28 melanoma,> 100 µM
same,GI50,TK-10 renal,2.54 µM
same,TGI,TK-10 renal,5.67 µM
same,GI50,K-562 leukemia,9.17 µM
same,TGI,K-562 leukemia,> 100 µM
same,GI50,LOX IMVI melanoma,3.51 µM
same,TGI,LOX IMVI melanoma,> 100 µM
same,GI50,HS 578T breast,3.09 µM
same,TGI,HS 578T breast,23.8 µM
same,GI50,NCI-H226 lung,2.54 µM
same,TGI,NCI-H226 lung,7.14 µM
same,GI50,U251 CNS,1.32 µM
same,TGI,U251 CNS,4.26 µM
same,GI50,MOLT-4 leukemia,> 100 µM
same,TGI,MOLT-4 leukemia,> 100 µM
same,GI50,EKVX NSCLC,4.71 µM
same,TGI,EKVX NSCLC,> 100 µM
same,GI50,OVCAR-3 ovarian,40 µM
same,TGI,OVCAR-3 ovarian,> 100 µM
same,GI50,OVCAR-4 ovarian,5.07 µM
same,TGI,OVCAR-4 ovarian,> 100 µM
same,GI50,HL-60(TB) leukemia,> 100 µM
same,TGI,HL-60(TB) leukemia,> 100 µM
same,GI50,HT29 colon,3.81 µM
same,TGI,HT29 colon,> 100 µM
same,GI50,SF-539 CNS,2.17 µM
same,TGI,SF-539 CNS,7.69 µM
same,GI50,UO-31 renal,2.03 µM
same,TGI,UO-31 renal,4.94 µM
same,GI50,NCI-H23 lung,2.46 µM
same,TGI,NCI-H23 lung,11.2 µM
same,GI50,NCI-H460 lung,3.53 µM
same,TGI,NCI-H460 lung,> 100 µM
same,GI50,HOP-92 NSCLC,1.91 µM
same,TGI,HOP-92 NSCLC,7.86 µM
same,GI50,UACC-62 melanoma,43.8 µM
same,TGI,UACC-62 melanoma,> 100 µM
same,GI50,KM12 colon,> 100 µM
same,TGI,KM12 colon,> 100 µM
same,GI50,SNB-19 CNS,2.05 µM
same,TGI,SNB-19 CNS,4.63 µM
same,GI50,DU-145 prostate,17.6 µM
same,TGI,DU-145 prostate,> 100 µM
same,GI50,SR leukemia,> 100 µM
same,TGI,SR leukemia,> 100 µM
same,GI50,SN12C renal,11.4 µM
same,TGI,SN12C renal,> 100 µM
same,GI50,NCI/ADR-RES ovarian,2.82 µM
same,TGI,NCI/ADR-RES ovarian,10.6 µM
same,GI50,HCC-2998 colon,15.8 µM
same,TGI,HCC-2998 colon,> 100 µM
same,GI50,SF-295 CNS,1.4 µM
same,TGI,SF-295 CNS,3.25 µM
same,GI50,HOP-62 NSCLC,2.13 µM
same,TGI,HOP-62 NSCLC,5.38 µM
same,GI50,OVCAR-5 ovarian,21.2 µM
same,TGI,OVCAR-5 ovarian,> 100 µM
same,GI50,MDA-MB-231 breast,2.9 µM
same,TGI,MDA-MB-231 breast,8.23 µM
same,GI50,M14 melanoma,21.9 µM
same,TGI,M14 melanoma,> 100 µM
same,GI50,COLO 205 colon,15.6 µM
same,TGI,COLO 205 colon,> 100 µM
same,GI50,MALME-3M melanoma,14.1 µM
same,TGI,MALME-3M melanoma,> 100 µM
same,GI50,HCT-15 colon,7.61 µM
same,TGI,HCT-15 colon,> 100 µM
same,GI50,SK-MEL-2 melanoma,> 100 µM
same,TGI,SK-MEL-2 melanoma,> 100 µM
same,GI50,MDA-MB-435,5.06 µM
same,TGI,MDA-MB-435,> 100 µM
same,GI50,MCF7 breast,4.74 µM
same,TGI,MCF7 breast,> 100 µM
same,GI50,SF-268 CNS,5.35 µM
same,TGI,SF-268 CNS,> 100 µM
same,GI50,SW-620 colon,3.77 µM
same,TGI,SW-620 colon,64.1 µM
same,GI50,IGROV1 ovarian,8.02 µM
same,TGI,IGROV1 ovarian,> 100 µM
same,GI50,UACC-257 melanoma,> 100 µM
same,TGI,UACC-257 melanoma,> 100 µM
same,GI50,MDA-MB-468 breast,5.08 µM
same,TGI,MDA-MB-468 breast,50.2 µM
same,GI50,OVCAR-8 ovarian,3.29 µM
same,TGI,OVCAR-8 ovarian,> 100 µM
same,GI50,CCRF-CEM leukemia,> 100 µM
same,TGI,CCRF-CEM leukemia,> 100 µM
same,GI50,RXF 393 renal,2.08 µM
same,TGI,RXF 393 renal,7.48 µM
same,GI50,786-0 renal,2.07 µM
same,TGI,786-0 renal,4.81 µM
same,GI50,RPMI-8226 leukemia,> 100 µM
same,TGI,RPMI-8226 leukemia,> 100 µM
same,GI50,A498 renal,24.2 µM
same,TGI,A498 renal,71.9 µM
same,GI50,BT-549 breast,24.8 µM
same,TGI,BT-549 breast,> 100 µM
same,GI50,T-47D breast,81.6 µM
same,TGI,T-47D breast,> 100 µM
same,GI50,PC-3 prostate,8.98 µM
same,TGI,PC-3 prostate,> 100 µM
same,GI50,A549 NSCLC,72.9 µM
same,TGI,A549 NSCLC,> 100 µM
same,GI50,NCI-H522 lung,8.3 µM
same,TGI,NCI-H522 lung,> 100 µM
same,GI50,SK-MEL-5 melanoma,5.03 µM
same,TGI,SK-MEL-5 melanoma,20.3 µM
same,GI50,SK-OV-3 ovarian,5.02 µM
same,TGI,SK-OV-3 ovarian,38.9 µM
same,GI50,CAKI-1 renal,2.82 µM
same,TGI,CAKI-1 renal,13.2 µM

# — PubChem BioAssay (NCI)
